Legend:
Assay in all cases: radiometric filter-binding kinase assay
PHKG1 (human) = PHKG1 (human) (UniProt Q16816)
ERBB4 (human) = ERBB4 (human) (UniProt Q15303)
JAK2 JH1 JH2 (human) = JAK2 JH1 JH2 (human) (UniProt O60674)
MAPKAPK2 (human) = MAPKAPK2 (human) (UniProt P49137)
NUAK1 (human) = NUAK1 (human) (UniProt O60285)
PRKACA (human) = PRKACA (human) (UniProt P17612)
LCK (mouse) = conditions: accession and sequence are those of the human protein
MAPK15 (human) = MAPK15 (human) (UniProt Q8TD08)
PRKAA1 or PRKAA2 (rat) = conditions: accession and sequence are those of the human protein
RPS6KA5 KD1 KD2 (human) = RPS6KA5 KD1 KD2 (human) (UniProt O75582)
PRKCA (human) = PRKCA (human) (UniProt P17252)
MINK1 (human) = MINK1 (human) (UniProt Q8N4C8)
CaMK1 (human) = CaMK1 (human) (UniProt Q14012)
CSK (human) = CSK (human) (UniProt P41240)
MST4 (human) = MST4 (human) (UniProt Q9P289)
PAK7 (human) = PAK7 (human) (UniProt Q9P286)
HIPK3 (human) = HIPK3 (human) (UniProt Q9H422)
INSR (human) = INSR (human) (UniProt P06213)
RIPK2 (human) = RIPK2 (human) (UniProt O43353)
BRSK1 (human) = BRSK1 (human) (UniProt Q8TDC3)
NEK6 (human) = NEK6 (human) (UniProt Q9HC98)
CAMKK2 (human) = CAMKK2 (human) (UniProt Q96RR4)
EPHA4 (human) = EPHA4 (human) (UniProt P54764)
MKNK1 (human) = MKNK1 (human) (UniProt Q9BUB5)
INSRR (human) = INSRR (human) (UniProt P14616)
CDK2 CCNA2 (human) = CDK2 CCNA2 (human) (UniProt P20248+P24941)
EPHB2 (human) = EPHB2 (human) (UniProt P29323)
DYRK2 (human) = DYRK2 (human) (UniProt Q92630)
EPHA2 (human) = EPHA2 (human) (UniProt P29317)
MAP2K1 (human) = MAP2K1 (human) (UniProt Q02750)
SRPK1 (human) = SRPK1 (human) (UniProt Q96SB4)
NEK2 (human) = NEK2 (human) (UniProt P51955)
MARK2 (human) = MARK2 (human) (UniProt Q7KZI7)
MARK1 (human) = MARK1 (human) (UniProt Q9P0L2)
BTK (human) = BTK (human) (UniProt Q06187); conditions: compound 0.1 µM

Sequence of MINK1 (human) (Q8N4C8 whole entry, looked up): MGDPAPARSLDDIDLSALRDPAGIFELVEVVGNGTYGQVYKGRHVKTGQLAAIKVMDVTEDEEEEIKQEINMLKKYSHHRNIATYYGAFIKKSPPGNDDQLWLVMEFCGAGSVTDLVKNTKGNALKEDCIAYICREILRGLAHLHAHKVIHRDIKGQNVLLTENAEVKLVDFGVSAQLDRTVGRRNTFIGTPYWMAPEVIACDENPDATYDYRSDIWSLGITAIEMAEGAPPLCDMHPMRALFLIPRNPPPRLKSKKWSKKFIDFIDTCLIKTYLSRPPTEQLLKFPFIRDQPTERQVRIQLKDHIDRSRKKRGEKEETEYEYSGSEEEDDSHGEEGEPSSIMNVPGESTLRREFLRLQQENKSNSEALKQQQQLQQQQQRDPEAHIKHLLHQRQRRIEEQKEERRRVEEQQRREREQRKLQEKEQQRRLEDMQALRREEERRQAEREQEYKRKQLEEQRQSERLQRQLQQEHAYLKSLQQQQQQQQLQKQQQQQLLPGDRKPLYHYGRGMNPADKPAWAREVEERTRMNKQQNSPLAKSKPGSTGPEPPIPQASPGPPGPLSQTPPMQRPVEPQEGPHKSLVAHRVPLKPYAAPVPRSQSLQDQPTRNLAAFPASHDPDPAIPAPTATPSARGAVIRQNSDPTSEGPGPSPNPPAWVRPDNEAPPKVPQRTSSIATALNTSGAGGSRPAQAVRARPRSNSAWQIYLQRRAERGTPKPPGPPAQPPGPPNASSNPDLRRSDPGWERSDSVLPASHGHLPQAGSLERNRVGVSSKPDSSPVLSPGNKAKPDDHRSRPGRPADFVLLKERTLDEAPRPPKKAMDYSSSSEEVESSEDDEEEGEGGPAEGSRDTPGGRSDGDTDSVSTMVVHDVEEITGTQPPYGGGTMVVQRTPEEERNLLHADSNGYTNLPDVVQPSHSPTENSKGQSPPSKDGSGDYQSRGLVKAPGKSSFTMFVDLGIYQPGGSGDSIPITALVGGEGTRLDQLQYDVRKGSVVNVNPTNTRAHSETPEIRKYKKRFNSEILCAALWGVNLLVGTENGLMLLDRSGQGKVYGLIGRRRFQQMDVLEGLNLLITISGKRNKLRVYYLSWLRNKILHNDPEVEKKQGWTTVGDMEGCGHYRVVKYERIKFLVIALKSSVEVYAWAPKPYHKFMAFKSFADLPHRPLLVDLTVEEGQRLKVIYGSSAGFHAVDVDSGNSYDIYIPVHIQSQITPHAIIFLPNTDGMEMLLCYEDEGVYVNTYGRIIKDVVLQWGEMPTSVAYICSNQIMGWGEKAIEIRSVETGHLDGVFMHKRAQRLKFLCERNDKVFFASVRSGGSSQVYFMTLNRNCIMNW
Sequence of DYRK2 (human) (Q92630 whole entry, looked up): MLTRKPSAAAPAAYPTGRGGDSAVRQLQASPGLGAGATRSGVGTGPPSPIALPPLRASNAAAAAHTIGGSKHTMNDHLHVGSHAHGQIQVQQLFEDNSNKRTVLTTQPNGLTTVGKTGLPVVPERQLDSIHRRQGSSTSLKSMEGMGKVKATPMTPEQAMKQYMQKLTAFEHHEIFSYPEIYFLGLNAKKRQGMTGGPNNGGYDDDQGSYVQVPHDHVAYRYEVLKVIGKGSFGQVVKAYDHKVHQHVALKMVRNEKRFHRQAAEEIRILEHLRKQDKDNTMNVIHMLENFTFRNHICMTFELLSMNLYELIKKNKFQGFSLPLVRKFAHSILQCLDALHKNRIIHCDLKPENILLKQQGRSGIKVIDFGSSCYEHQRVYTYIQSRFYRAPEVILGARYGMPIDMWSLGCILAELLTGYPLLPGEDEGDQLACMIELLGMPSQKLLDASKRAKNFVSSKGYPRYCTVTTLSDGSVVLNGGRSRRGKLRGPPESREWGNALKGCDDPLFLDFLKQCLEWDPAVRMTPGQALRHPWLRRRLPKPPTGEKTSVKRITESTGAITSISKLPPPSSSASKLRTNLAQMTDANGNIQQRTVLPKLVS
Sequence of NEK6 (human) (Q9HC98 whole entry, looked up): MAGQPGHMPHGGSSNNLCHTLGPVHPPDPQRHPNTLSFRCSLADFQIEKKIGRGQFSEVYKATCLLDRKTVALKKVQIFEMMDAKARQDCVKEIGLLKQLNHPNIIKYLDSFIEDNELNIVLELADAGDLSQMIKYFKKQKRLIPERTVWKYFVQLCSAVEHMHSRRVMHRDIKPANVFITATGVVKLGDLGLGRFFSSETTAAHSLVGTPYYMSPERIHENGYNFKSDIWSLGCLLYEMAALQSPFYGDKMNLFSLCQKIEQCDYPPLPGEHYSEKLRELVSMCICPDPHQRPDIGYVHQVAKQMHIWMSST
Sequence of EPHA2 (human) (P29317 whole entry, looked up): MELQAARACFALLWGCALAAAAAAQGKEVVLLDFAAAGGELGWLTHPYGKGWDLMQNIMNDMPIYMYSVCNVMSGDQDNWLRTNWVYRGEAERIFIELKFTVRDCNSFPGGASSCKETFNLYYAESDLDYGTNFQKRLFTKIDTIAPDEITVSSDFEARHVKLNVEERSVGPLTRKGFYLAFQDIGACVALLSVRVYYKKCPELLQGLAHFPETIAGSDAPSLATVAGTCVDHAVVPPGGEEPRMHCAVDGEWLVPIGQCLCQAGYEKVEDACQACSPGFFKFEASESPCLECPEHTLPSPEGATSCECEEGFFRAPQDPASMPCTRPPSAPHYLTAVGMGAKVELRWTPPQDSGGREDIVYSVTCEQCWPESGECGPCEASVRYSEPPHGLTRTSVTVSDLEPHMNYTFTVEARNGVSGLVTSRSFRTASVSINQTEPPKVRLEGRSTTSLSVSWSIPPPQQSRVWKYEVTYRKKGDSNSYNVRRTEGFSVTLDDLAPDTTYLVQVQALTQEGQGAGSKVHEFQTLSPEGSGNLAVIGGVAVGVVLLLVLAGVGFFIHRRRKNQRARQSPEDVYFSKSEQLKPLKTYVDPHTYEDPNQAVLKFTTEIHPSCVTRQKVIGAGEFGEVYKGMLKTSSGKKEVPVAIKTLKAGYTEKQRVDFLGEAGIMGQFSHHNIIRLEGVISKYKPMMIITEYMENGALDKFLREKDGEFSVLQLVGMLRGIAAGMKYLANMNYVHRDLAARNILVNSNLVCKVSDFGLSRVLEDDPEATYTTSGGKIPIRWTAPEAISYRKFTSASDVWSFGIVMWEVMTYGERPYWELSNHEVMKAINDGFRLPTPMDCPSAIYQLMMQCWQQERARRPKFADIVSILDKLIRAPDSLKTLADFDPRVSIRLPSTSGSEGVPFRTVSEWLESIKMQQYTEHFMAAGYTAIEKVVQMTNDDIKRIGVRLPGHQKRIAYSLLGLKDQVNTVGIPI
Sequence of MST4 (human) (Q9P289 whole entry, looked up): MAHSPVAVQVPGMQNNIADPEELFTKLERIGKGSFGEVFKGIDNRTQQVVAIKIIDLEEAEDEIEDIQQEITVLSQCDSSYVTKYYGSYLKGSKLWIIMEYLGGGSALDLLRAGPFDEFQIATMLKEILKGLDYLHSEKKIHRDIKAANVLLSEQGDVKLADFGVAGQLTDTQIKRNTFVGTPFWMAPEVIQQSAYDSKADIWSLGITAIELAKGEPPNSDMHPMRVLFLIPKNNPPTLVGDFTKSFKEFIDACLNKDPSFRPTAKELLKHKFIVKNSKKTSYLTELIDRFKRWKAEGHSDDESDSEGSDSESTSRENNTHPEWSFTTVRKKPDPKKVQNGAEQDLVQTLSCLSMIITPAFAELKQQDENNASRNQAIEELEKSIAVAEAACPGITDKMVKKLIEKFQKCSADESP
Sequence of MKNK1 (human) (Q9BUB5 whole entry, looked up): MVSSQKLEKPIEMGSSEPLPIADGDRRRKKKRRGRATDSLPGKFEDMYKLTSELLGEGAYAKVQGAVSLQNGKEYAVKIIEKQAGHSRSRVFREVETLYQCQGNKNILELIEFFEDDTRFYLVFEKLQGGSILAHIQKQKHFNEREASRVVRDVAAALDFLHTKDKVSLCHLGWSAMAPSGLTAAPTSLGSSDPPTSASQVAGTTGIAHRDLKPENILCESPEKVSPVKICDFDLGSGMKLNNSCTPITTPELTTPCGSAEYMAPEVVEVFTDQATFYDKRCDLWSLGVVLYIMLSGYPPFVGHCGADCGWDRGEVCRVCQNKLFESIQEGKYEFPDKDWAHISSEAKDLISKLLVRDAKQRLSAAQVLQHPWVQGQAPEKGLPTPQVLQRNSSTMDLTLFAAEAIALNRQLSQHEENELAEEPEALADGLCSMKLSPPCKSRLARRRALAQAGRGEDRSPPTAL
Sequence of MAPKAPK2 (human) (P49137 whole entry, looked up): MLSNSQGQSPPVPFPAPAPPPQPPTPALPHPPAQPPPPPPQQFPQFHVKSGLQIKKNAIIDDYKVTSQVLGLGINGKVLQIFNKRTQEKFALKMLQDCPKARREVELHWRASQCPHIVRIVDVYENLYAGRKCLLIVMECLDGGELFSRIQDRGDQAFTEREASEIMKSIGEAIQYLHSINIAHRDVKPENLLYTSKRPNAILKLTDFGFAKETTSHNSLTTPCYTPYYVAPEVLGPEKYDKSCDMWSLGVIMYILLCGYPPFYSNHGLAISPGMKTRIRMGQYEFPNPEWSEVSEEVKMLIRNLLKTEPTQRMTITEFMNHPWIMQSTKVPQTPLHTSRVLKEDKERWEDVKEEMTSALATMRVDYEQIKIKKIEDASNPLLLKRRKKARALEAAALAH
Sequence of PHKG1 (human) (Q16816 whole entry, looked up): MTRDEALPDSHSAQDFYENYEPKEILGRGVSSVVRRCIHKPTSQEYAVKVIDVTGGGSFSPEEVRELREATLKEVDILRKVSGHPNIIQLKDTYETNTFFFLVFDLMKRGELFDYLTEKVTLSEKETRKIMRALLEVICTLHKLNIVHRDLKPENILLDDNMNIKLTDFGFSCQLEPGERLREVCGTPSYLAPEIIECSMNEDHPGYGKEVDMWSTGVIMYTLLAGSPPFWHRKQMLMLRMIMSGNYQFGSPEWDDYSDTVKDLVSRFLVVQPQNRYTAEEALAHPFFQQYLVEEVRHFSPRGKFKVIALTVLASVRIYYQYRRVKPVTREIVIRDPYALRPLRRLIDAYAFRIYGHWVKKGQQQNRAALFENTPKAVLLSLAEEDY

## C=CC(=O)N1CCC[C@@H](n2nc(-c3ccc(Oc4ccccc4)cc3)c3c(N)ncnc32)C1
PHKG1 (human); compound 1.0 µM
  residual activity: 104%
PHKG1 (human); compound 10.0 µM
  residual activity: 92%
ERBB4 (human); compound 0.1 µM
  residual activity: 7%
ERBB4 (human); compound 1.0 µM
  residual activity: 8%
ERBB4 (human); compound 10.0 µM
  residual activity: 5%
JAK2 JH1 JH2 (human); compound 0.1 µM
  residual activity: 90%
JAK2 JH1 JH2 (human); compound 1.0 µM
  residual activity: 103%
JAK2 JH1 JH2 (human); compound 10.0 µM
  residual activity: 83%
MAPKAPK2 (human); compound 0.1 µM
  residual activity: 88%
MAPKAPK2 (human); compound 1.0 µM
  residual activity: 95%
MAPKAPK2 (human); compound 10.0 µM
  residual activity: 90%
NUAK1 (human); compound 0.1 µM
  residual activity: 99%
NUAK1 (human); compound 1.0 µM
  residual activity: 82%
NUAK1 (human); compound 10.0 µM
  residual activity: 26%
PRKACA (human); compound 0.1 µM
  residual activity: 89%
PRKACA (human); compound 1.0 µM
  residual activity: 101%
PRKACA (human); compound 10.0 µM
  residual activity: 97%
LCK (mouse); compound 0.1 µM
  residual activity: 22%
LCK (mouse); compound 10.0 µM
  residual activity: 9%
MAPK15 (human); compound 0.1 µM
  residual activity: 85%
MAPK15 (human); compound 1.0 µM
  residual activity: 98%
MAPK15 (human); compound 10.0 µM
  residual activity: 74%
PRKAA1 or PRKAA2 (rat); compound 0.1 µM
  residual activity: 88%
PRKAA1 or PRKAA2 (rat); compound 1.0 µM
  residual activity: 101%
PRKAA1 or PRKAA2 (rat); compound 10.0 µM
  residual activity: 78%
RPS6KA5 KD1 KD2 (human); compound 0.1 µM
  residual activity: 94%
RPS6KA5 KD1 KD2 (human); compound 1.0 µM
  residual activity: 101%
RPS6KA5 KD1 KD2 (human); compound 10.0 µM
  residual activity: 55%
PRKCA (human); compound 0.1 µM
  residual activity: 99%
PRKCA (human); compound 10.0 µM
  residual activity: 100%
MINK1 (human); compound 0.1 µM
  residual activity: 90%
MINK1 (human); compound 1.0 µM
  residual activity: 91%
MINK1 (human); compound 10.0 µM
  residual activity: 57%
CaMK1 (human); compound 0.1 µM
  residual activity: 80%
CaMK1 (human); compound 1.0 µM
  residual activity: 99%
CaMK1 (human); compound 10.0 µM
  residual activity: 33%
CSK (human); compound 0.1 µM
  residual activity: 25%
CSK (human); compound 1.0 µM
  residual activity: 15%
CSK (human); compound 10.0 µM
  residual activity: 3%
MST4 (human); compound 0.1 µM
  residual activity: 100%
MST4 (human); compound 1.0 µM
  residual activity: 73%
MST4 (human); compound 10.0 µM
  residual activity: 27%
PAK7 (human); compound 0.1 µM
  residual activity: 93%
PAK7 (human); compound 1.0 µM
  residual activity: 97%
PAK7 (human); compound 10.0 µM
  residual activity: 50%
HIPK3 (human); compound 0.1 µM
  residual activity: 100%
HIPK3 (human); compound 1.0 µM
  residual activity: 123%
HIPK3 (human); compound 10.0 µM
  residual activity: 110%
INSR (human); compound 0.1 µM
  residual activity: 77%
INSR (human); compound 10.0 µM
  residual activity: 31%
RIPK2 (human); compound 0.1 µM
  residual activity: 21%
RIPK2 (human); compound 1.0 µM
  residual activity: 5%
RIPK2 (human); compound 10.0 µM
  residual activity: 2%
BRSK1 (human); compound 10.0 µM
  residual activity: 49%
NEK6 (human); compound 0.1 µM
  residual activity: 76%
NEK6 (human); compound 1.0 µM
  residual activity: 99%
NEK6 (human); compound 10.0 µM
  residual activity: 93%
CAMKK2 (human); compound 0.1 µM
  residual activity: 86%
CAMKK2 (human); compound 1.0 µM
  residual activity: 109%
CAMKK2 (human); compound 10.0 µM
  residual activity: 80%
EPHA4 (human); compound 1.0 µM
  residual activity: 92%
EPHA4 (human); compound 10.0 µM
  residual activity: 45%
MKNK1 (human); compound 0.1 µM
  residual activity: 91%
MKNK1 (human); compound 1.0 µM
  residual activity: 115%
MKNK1 (human); compound 10.0 µM
  residual activity: 84%
INSRR (human); compound 0.1 µM
  residual activity: 94%
INSRR (human); compound 1.0 µM
  residual activity: 101%
INSRR (human); compound 10.0 µM
  residual activity: 29%
CDK2 CCNA2 (human); compound 0.1 µM
  residual activity: 89%
CDK2 CCNA2 (human); compound 1.0 µM
  residual activity: 99%
CDK2 CCNA2 (human); compound 10.0 µM
  residual activity: 84%
EPHB2 (human); compound 0.1 µM
  residual activity: 102%
EPHB2 (human); compound 1.0 µM
  residual activity: 65%
EPHB2 (human); compound 10.0 µM
  residual activity: 11%
DYRK2 (human); compound 0.1 µM
  residual activity: 83%
DYRK2 (human); compound 1.0 µM
  residual activity: 105%
DYRK2 (human); compound 10.0 µM
  residual activity: 79%
EPHA2 (human); compound 0.1 µM
  residual activity: 91%
EPHA2 (human); compound 1.0 µM
  residual activity: 98%
EPHA2 (human); compound 10.0 µM
  residual activity: 64%
MAP2K1 (human); compound 0.1 µM
  residual activity: 85%
MAP2K1 (human); compound 1.0 µM
  residual activity: 76%
MAP2K1 (human); compound 10.0 µM
  residual activity: 56%
SRPK1 (human); compound 0.1 µM
  residual activity: 100%
SRPK1 (human); compound 1.0 µM
  residual activity: 115%
SRPK1 (human); compound 10.0 µM
  residual activity: 99%
NEK2 (human); compound 0.1 µM
  residual activity: 93%
NEK2 (human); compound 1.0 µM
  residual activity: 107%
NEK2 (human); compound 10.0 µM
  residual activity: 35%
MARK2 (human); compound 0.1 µM
  residual activity: 88%
MARK2 (human); compound 1.0 µM
  residual activity: 102%
MARK2 (human); compound 10.0 µM
  residual activity: 82%
MARK1 (human); compound 0.1 µM
  residual activity: 101%
MARK1 (human); compound 1.0 µM
  residual activity: 103%
MARK1 (human); compound 10.0 µM
  residual activity: 88%

## CN1CCN(CCOc2cc(OC3CCOCC3)c3c(Nc4c(Cl)ccc5c4OCO5)ncnc3c2)CC1
PHKG1 (human); compound 0.1 µM
  residual activity: 106%
ERBB4 (human); compound 0.1 µM
  residual activity: 67%
JAK2 JH1 JH2 (human); compound 0.1 µM
  residual activity: 102%
NUAK1 (human); compound 0.1 µM
  residual activity: 95%
PRKACA (human); compound 0.1 µM
  residual activity: 105%
MAPK15 (human); compound 0.1 µM
  residual activity: 134%
PRKAA1 or PRKAA2 (rat); compound 0.1 µM
  residual activity: 99%
RPS6KA5 KD1 KD2 (human); compound 0.1 µM
  residual activity: 103%
PRKCA (human); compound 0.1 µM
  residual activity: 100%
MINK1 (human); compound 0.1 µM
  residual activity: 90%
CaMK1 (human); compound 0.1 µM
  residual activity: 106%
CSK (human); compound 0.1 µM
  residual activity: 74%
MST4 (human); compound 0.1 µM
  residual activity: 104%
PAK7 (human); compound 0.1 µM
  residual activity: 98%
HIPK3 (human); compound 0.1 µM
  residual activity: 101%
INSR (human); compound 0.1 µM
  residual activity: 90%
RIPK2 (human); compound 0.1 µM
  residual activity: 9%
BRSK1 (human); compound 0.1 µM
  residual activity: 94%
NEK6 (human); compound 0.1 µM
  residual activity: 101%
CAMKK2 (human); compound 0.1 µM
  residual activity: 95%
EPHA4 (human); compound 0.1 µM
  residual activity: 49%
MKNK1 (human); compound 0.1 µM
  residual activity: 107%
INSRR (human); compound 0.1 µM
  residual activity: 123%
CDK2 CCNA2 (human); compound 0.1 µM
  residual activity: 96%
EPHB2 (human); compound 0.1 µM
  residual activity: 66%
DYRK2 (human); compound 0.1 µM
  residual activity: 109%
EPHA2 (human); compound 0.1 µM
  residual activity: 55%
MAP2K1 (human); compound 0.1 µM
  residual activity: 97%
SRPK1 (human); compound 0.1 µM
  residual activity: 82%
NEK2 (human); compound 0.1 µM
  residual activity: 94%
MARK2 (human); compound 0.1 µM
  residual activity: 90%
BTK (human)
  residual activity: 57%
MARK1 (human); compound 0.1 µM
  residual activity: 101%
